Reference: a melting point compilation (Tetko et al.; mined from patent text by program, amines drawn as free bases though some values may be those of a salt)

Row | Compound | melting point
1 | C=CCCCCCCCCC(=O)N[C@H]1CCCNC(=O)C1 | 83 to 84 °C
2 | CN(CCO)c1nccc(NC(N)=NCC(F)(F)F)n1 | 158 to 160 °C
3 | CCOC(=O)c1c2n(c3cc(Cl)c(F)cc3c1=O)C(COC1CCCCO1)CS2 (stereo not given) | 183 to 186 °C
4 | COCc1ccc(-c2csc(-c3ccncc3)n2)c(=O)[nH]1 | 249 to 254 °C
5 | Fc1ccc(Br)nc1Br | 47 to 48 °C
6 | Cc1conc1-c1nnc2c3ccccc3c(OCc3nnccc3C(C)(C)C)nn12 | 230 to 232 °C
7 | CS(=O)(=O)c1cc(CBr)ccc1Br | 120 to 124 °C
8 | CC(=O)c1cc2c(C(C)=O)c(OCC3CO3)ccc2o1 (stereo not given) | 114 °C
9 | C=CCn1cc(Br)cnc1=O | 142 to 143 °C
10 | CNC(=S)N1CCc2[nH]cnc2C1c1cccs1 (stereo not given) | 215 °C
11 | CCCCCCCCCCC(C)(C)NC(=O)Nc1cc(OC)cc(C(C)(C)C)c1O | 99 to 102 °C
12 | COc1ccc(N)c(OCC(N)=O)c1 | 139 to 140 °C
13 | O=C(NCCNCCNC(=O)C(F)(F)F)C(F)(F)F | 68 to 70 °C
14 | Cc1cc2c(cc1CO)CCC(CCN1CCCC1)=C2 | 76 to 77 °C
15 | O=S(=O)(c1scc(Br)c1Br)n1nnc2c(Br)cc(C(F)(F)F)cc21 | 192 to 195 °C
16 | Cc1cc2nnc(C)n2nc1-c1ccc(C#N)cc1 | 242 to 244 °C
17 | COc1ccc(CCNC(=O)N(C)O)cc1OC | 103 to 104 °C
18 | CNc1ccc(Cl)cc1C(O)c1ccccc1Cl (stereo not given) | 106 to 108 °C
19 | O=Cc1oc(-c2ccccc2)nc1CO | 134 to 135 °C
20 | Clc1ccccc1N=Nc1ncc[nH]1 | 173 to 177 °C
21 | Cc1ccnc2c1C(=O)c1c(C)cc(=O)[nH]c1C2=O | 258 to 261 °C
22 | CC(C)(C)c1ccc2nc(N3CCN(c4ncccc4C(F)(F)F)CC3)[nH]c2c1 | 247 to 249 °C
23 | O=C(O)c1ccc(C(O)(C(F)(F)F)C(F)(F)F)cc1C(=O)O | 183 to 185 °C
24 | CC1(C)CC(Cl)C(=Cc2ccc(F)cc2)C1=O (stereo not given) | 69 °C

Row | Compound | melting point
25 | CCCCCCCCCCCCCCCCCCOCC(Br)COCCCCCCCCCCCCCCCCCC | 47.9 to 48.7 °C
26 | CC(=O)OC1CSC(Oc2ccc(-c3ccc(F)nc3)nc2Cl)C(OC(C)=O)C1OC(C)=O (stereo not given) | 226 °C
27 | COc1ccc(Cn2nc(CO)c3cc(OC)c(OC)cc32)cc1OC | 187 °C
28 | O=C(O)c1nc(C2CC2)[nH]c(=O)c1Cl | 189 to 190 °C
29 | Nc1cc(CCC(=O)N2CCCCC2)ccc1O | 149 to 150 °C
30 | CSc1c(NC(C)=O)cnc2ccccc12 | 137 to 138 °C
31 | CC(C)OC(=O)c1cc(I)c(F)cc1Cl | 38 to 43 °C
32 | COc1ccc(C2(CCCCl)S(=O)(=O)CCCS2(=O)=O)cc1OC | 183 to 184 °C
33 | CC(C)(Nc1ccc(Cl)cc1[N+](=O)[O-])C(=O)O | 162 to 164 °C
34 | COc1cc2c(Nc3cc(O)c(C)cc3F)ncnc2cc1O | 276 to 278 °C
35 | CC1(C)Cc2cc(Cl)cc(Cl)c2C=[N+]1[O-] | 92 to 94 °C
36 | CC[C@@H]1NC(=O)C(F)(F)[C@@H]1O | 118 to 121 °C
37 | O=C(NC1=NCCCN1)Nc1c(Cl)cccc1Cl | 179 to 180 °C
38 | COC(=O)c1cc(S(C)=O)ccc1OC (stereo not given) | 64 to 66 °C
39 | COC(=O)c1ccc(-c2coc3ccc(-c4nnc(C)o4)cc23)cc1 | 208 to 209 °C
40 | CCCCCCCCCCCC1=NCCN1CCO | 40 to 42 °C
41 | Nc1c(F)c(N2CCNCC2)cc2c1c(=O)c(C(=O)O)cn2C1CC1 | 214 to 216 °C
42 | CC(C)(Oc1ccc(CC(=O)Nc2cc(Cl)cc(Cl)c2)cc1)C(=O)O | 138 °C
43 | Cc1nc(N)c2ncn(Cc3cc(-c4ccc(F)cc4)no3)c2c1C | 244 to 246 °C
44 | COC(=O)c1ccc2oc3c(c(=O)c2c1)CCC3=Cc1cc(OC)c(OC)cc1OC | 221 to 224 °C
45 | O=C(c1ccc(Cl)cc1)c1c(Cl)nc2n(c1=O)CCS2 | 174 °C
46 | COCOc1c(OC)cc(C=O)c2cccc(C)c12 | 48 to 50 °C
47 | CC(C)(C)c1cc(OCC(=O)O)cc(C(C)(C)C)c1O | 172 to 173 °C
48 | COc1ccc(-c2cc3cc(Cl)cc(Cl)c3o2)cc1 | 172 to 174 °C

Next, values leading:

Row | melting point | Compound
49 | 189 to 191 °C | CC1CCN(Cc2ccc(COc3cccc4c3CN(C3CCC(=O)NC3=O)C4=O)cc2)CC1 (stereo not given)
50 | 65 to 67 °C | CC(C)(CCCCCC(O)CCCCCC(C)(C)CC(=O)c1cccnc1)COC(=O)c1cccnc1 (stereo not given)
51 | 238 °C | O=C(Nc1cccc(S(=O)(=O)NCCc2ccncc2)c1)c1cnn2c(C(F)F)cc(-c3ccc(C(F)(F)F)cc3)nc12
52 | 200 °C | COc1cc(C)c(OC)c(OC)c1-c1csc(NC(=O)c2cc3ccccc3[nH]2)n1
53 | 190 to 200 °C | O=C(O)CC(NS(=O)(=O)c1ccc2ccccc2c1)c1ccccc1O (stereo not given)
54 | 164 to 165 °C | CC(C)N(CCN1C(=O)/C(=N/NC(=O)NCc2ccccc2)c2ccccc21)C(C)C
55 | 249 to 251 °C | O=C(NCc1ccccc1)c1[nH]c2ccc(Cl)cc2c1S(=O)(=O)c1ccccc1
56 | 127 to 130 °C | CCCCc1nc2c(N)nc3ccccc3c2n1CCCCSC
57 | 113 to 116 °C | CC(=O)N1CCC(C(=O)c2nccn2CCc2ccccc2)CC1
58 | 65 to 67 °C | CCCCOc1ccc(S(=O)(=O)N2CC(N(Cc3ccccc3)CC(O)COc3cccc4[nH]c5ccccc5c34)C2)cc1 (stereo not given)
59 | 215 to 216 °C | Cc1cc(N2CCN(C(=O)N3CCN(S(=O)(=O)c4ccc(Br)cc4)CC3)CC2)ncn1
60 | 144 to 147 °C | COC(=O)C(=O)c1nsc(NC(=O)OCc2ccccc2)n1
61 | 138 to 140 °C | COc1ccc2c(c1)S(=O)(=O)N(C(OC(=O)c1sccc1Cl)C(C)C)C2=O (stereo not given)
62 | 64 °C | CCCc1ccc(-c2cc(F)c(-c3ccc(CCC)s3)c(F)c2)cc1
63 | > 260 °C | CN1CCN(c2ccc(C=CC(=O)N3CCc4c([nH]c5ccccc45)C3c3ccc4c(c3)CCO4)cn2)CC1 (stereo not given)
64 | 293 °C | COC(=O)c1ccc(-c2cc(C)c3[nH]c(=O)ccc3c2)cc1
65 | 151 to 152 °C | COC(=O)Cc1ccc(OCC2CN(c3ccc(C(=N)N)cc3)C(=O)O2)cc1 (stereo not given)
66 | 100 to 101 °C | NC(=O)CC(O)CCCCCNC(=O)OCc1ccccc1 (stereo not given)
67 | 116 to 118 °C | CCCCCCNC(=O)CSc1nc(Cl)cc(Nc2cccc(C)c2C)n1
68 | 220 to 221 °C | CCC(C)CNC(=O)c1ccc2cccc(Cc3ccc(C(=O)O)cc3OC)c2c1 (stereo not given)
69 | 288 to 289 °C | COC(=O)c1c(-c2ccccc2Cl)c2cc(C)c(C)cc2[nH]c1=O
70 | 293 °C | O=C(CCc1ccccc1)Nc1cccc(C(=O)NN=C2C(=O)Nc3ccc(I)cc32)c1
71 | 52 to 54 °C | c1ccc(NCCCCCCCNc2ccccc2)cc1
72 | 251 to 253 °C | CCCc1nc2ccccc2c(=O)n1Cc1ccc(-c2ccccc2-c2nc(=O)o[nH]2)cc1
73 | 162 to 167 °C | O=C(Nc1ccc(-n2nc(C3CC3)cc2C2CC2)cc1)c1ccc2nccnc2c1
74 | 141 to 143 °C | COc1ccc2c(c1)C(=O)N(c1ccc3ccoc3c1)C2

Row | melting point | Compound
75 | 117 to 119 °C | COC(=O)c1c(OCc2ccccc2)ccc2c1CC[C@@H](NC1CCC1)[C@@H]2O (relative stereo)
76 | 84 to 85 °C | N#Cc1cccc(C(=O)c2ccccc2)c1
77 | 150 to 152 °C | COc1ccc(COc2ccc(CC(=O)O)cc2Cl)cc1
78 | 193 to 194 °C | COC(=O)c1sc(-c2ccc(OCc3ccc([N+](=O)[O-])cc3)c(OC)c2)cc1NC(C)=O
79 | 170 to 172 °C | O=S(=O)(CCN1CCC2(CC1)OCc1ccccc12)CCN1CCC2(CC1)OCc1ccccc12
80 | 138 to 139 °C | COc1cc([C@H](C)O)ccc1OCCCN1CCC(c2noc3cc(F)ccc23)CC1
81 | 290 °C | O=C1OC(=O)c2cc3ccc([N+](=O)[O-])cc3c3cccc1c23
82 | 75 °C | CCCCCC1(C#N)CCC(c2ccc(-c3ccc(CCC)cc3)cc2)CC1 (stereo not given)
83 | 185 to 186 °C | CC(=O)NC1Cc2cccc3cccc(c23)C1=O (stereo not given)
84 | 86 to 87 °C | CCOC(=O)Cc1c(C)nn(-c2ccccc2)c1C
85 | 122 °C | COc1cc2c(cc1OCc1ccccc1)C1Cc3c(Cl)cc(OC)c(OCCOCCO)c3CN1CC2 (stereo not given)
86 | 156 to 158 °C | COc1ccc(Cn2nnc(-c3ccc(OC)c(C(=O)NCc4ccc(F)cc4)c3)n2)cc1
87 | 157 to 159 °C | CC(C)[C@H](NC(=O)Cc1csc(N(C)C)n1)C(=O)N[C@@H](Cc1ccccc1)[C@@H](O)C[C@H](Cc1ccccc1)NC(=O)OCc1cncs1
88 | 228 to 230 °C | CC(C)(CC(=O)Nc1ccc2oc(-c3ccc4ccc(Cl)cc4n3)cc2c1)C(=O)O
89 | 114 to 116 °C | CN(C)C(=S)CCC(c1ccccc1)(c1ccccc1)c1ccccc1
90 | 107 to 112 °C | COCc1c(C=NO)nc(Oc2nccc3ccccc23)c2[nH]c3ccccc3c12
91 | 84 to 86 °C | CC(C)Oc1ccc(/C=C(\NC(=O)c2ccc(OCCC(F)(F)F)cc2)C(=O)NCCO)cc1
92 | 296 to 298 °C | CCc1cc(C=CN2C(=O)c3ccccc3C2=O)c(=O)[nH]c1C
93 | 188 to 191 °C | Cc1nc(N2CCN(Cc3ccc(F)cc3)C2=O)sc1C(=O)NCc1cocn1
94 | 110 to 111 °C | CCOC(=O)C(=O)/C=C/c1ccc(OCc2nc(-c3ccccc3)oc2C)cc1
95 | > 300 °C | O=C(O)Cc1ccc2oc(-c3ccc(N4C=CC=CN4c4ccc(-c5nc6cc(CC(=O)O)ccc6o5)cc4)cc3)nc2c1
96 | 148 to 149 °C | CCC(O)c1ccc(Cc2c(Cl)cc(N3N=CCNC3=O)cc2Cl)cc1 (stereo not given)
97 | 220 °C | CCCCCCCCCCCCCCCCNC(=O)c1ccc(-n2oc(C(C)(C)C)c(COc3ccc(N)cc3)c2=O)c([N+](=O)[O-])c1
98 | 175 to 176 °C | N#Cc1cc(C(=O)NNC(=O)c2occc2-c2ccccc2Cc2ccccc2)ccc1O
99 | 73 to 76 °C | CC(C)Oc1cccc(CC(=O)N2CCC(CCN3CCC(C(=O)c4nc5ccccc5n4Cc4ccc(F)cc4)CC3)(c3ccc4c(c3)OCO4)C2)c1 (stereo not given)
100 | 160 to 162 °C | NS(=O)(=O)c1ccc(/C(=C(\CCO)C(=O)O)c2ccc(F)cc2)cc1
